Experimental data reported in publication PMC7221826, “5-Oxo-hexahydroquinoline Derivatives and Their Tetrahydroquinoline Counterparts as Multidrug Resistance Reversal Agents” (Molecules, 2020).
“Also recorded” adds a separate entry of the source. Like-named read-outs stand apart in the source and are kept apart here.

Columns and labels:
HEK-293 = experiment: MTT cell viability assay, HEK-293; assay type: cell-based, human; conditions: non-cancerous, read-out: IC50 (µM) in Cultured Cells HEK-293
Description: (§1) Cell lines used for cytotoxicity assays included MCF-7 (human breast adenocarcinoma), A549 (human lung adenocarcinoma), K562 (human chronic myelogenous leukemia) and HEK-293 (human embryonic kidney) cells and were obtained from the Iranian Biological Resource Center, Tehran, Iran. MES-SA-DX5 multidrug resistant human uterine sarcoma, over-expressing P-gp and their parental non-resistant MES-SA cell lines were purchased from Sigma-Aldrich (St. Louis, MO, USA). All cells, except for HEK-293, were cultured in RPMI 1640 supplemented with 10% FBS and 100 units/mL penicillin-streptomycin at 37 °C in humidified air containing 5% CO2. HEK-293 cells were maintained in DMEM-F12 medium containing L-glutamine 2 mM supplemented with FBS and penicillin-streptomycin. MES-SA-DX5 cells were maintained in media containing 100 nM doxorubicin in order to ensure that only drug-resistant cells continue to grow.
(§2) Cytotoxicity of the test compounds were evaluated by MTT assay. In this method, reduction of MTT, a yellow tetrazolium salt to the purple formazan, by cellular dehydrogenase enzymes is determined as an index of cell viability. Cancer cells were seeded into 96-well plates (3–5 × 10^3 cells/well) and incubated for 24 h at 37 °C. Afterwards, four different concentrations of synthesized derivatives were added in triplicate and the cells were incubated at 37 °C for another 72 h, after which the media was replaced with MTT solution at a concentration of 0.5 mg/mL was added for MTT assay. After another 4h, formazan crystals were dissolved in 200 μL DMSO for 90 min and absorbance was measured at a wavelength of 570 nm with background correction at 650 nm using a microplate reader (model 680, Bio-Rad, Hercules, CA, USA) and IC50 for each compound was calculated with CurveExpert version 1.34 for Windows.

MES-SA = experiment: MTT cell viability assay, MES-SA; assay type: cell-based, human; conditions: MTT; for IC50: Homo sapiens, MES-SA, 72 h, parental non-resistant, read-out: IC50 (µM) in Cultured Cells MES-SA
Description: as §1, §2

MCF-7 = experiment: MTT cell viability assay, MCF-7; assay type: cell-based, human; conditions: Homo sapiens, MCF7, 72 h, read-out: IC50 (µM) in Cultured Cells MCF-7
Description: as §1, §2

P-gp = target: T1, P-gp (Homo sapiens, UniProt P08183); experiment: MDR reversal assay: flow cytometric detection of Rhodamine123 efflux/accumulation in MES-SA-DX5 cells; assay type: cell-based; conditions: compounds at 5, 10 and 25 µM, 5 µM Rh123
T1 construct: MES-SA-DX5 is a resistant cell line, which overexpresses P-gp as a result of constant exposure to doxorubicin; host or cells: MES-SA-DX5 human uterine sarcoma cells
T1 sequence (P08183 whole entry): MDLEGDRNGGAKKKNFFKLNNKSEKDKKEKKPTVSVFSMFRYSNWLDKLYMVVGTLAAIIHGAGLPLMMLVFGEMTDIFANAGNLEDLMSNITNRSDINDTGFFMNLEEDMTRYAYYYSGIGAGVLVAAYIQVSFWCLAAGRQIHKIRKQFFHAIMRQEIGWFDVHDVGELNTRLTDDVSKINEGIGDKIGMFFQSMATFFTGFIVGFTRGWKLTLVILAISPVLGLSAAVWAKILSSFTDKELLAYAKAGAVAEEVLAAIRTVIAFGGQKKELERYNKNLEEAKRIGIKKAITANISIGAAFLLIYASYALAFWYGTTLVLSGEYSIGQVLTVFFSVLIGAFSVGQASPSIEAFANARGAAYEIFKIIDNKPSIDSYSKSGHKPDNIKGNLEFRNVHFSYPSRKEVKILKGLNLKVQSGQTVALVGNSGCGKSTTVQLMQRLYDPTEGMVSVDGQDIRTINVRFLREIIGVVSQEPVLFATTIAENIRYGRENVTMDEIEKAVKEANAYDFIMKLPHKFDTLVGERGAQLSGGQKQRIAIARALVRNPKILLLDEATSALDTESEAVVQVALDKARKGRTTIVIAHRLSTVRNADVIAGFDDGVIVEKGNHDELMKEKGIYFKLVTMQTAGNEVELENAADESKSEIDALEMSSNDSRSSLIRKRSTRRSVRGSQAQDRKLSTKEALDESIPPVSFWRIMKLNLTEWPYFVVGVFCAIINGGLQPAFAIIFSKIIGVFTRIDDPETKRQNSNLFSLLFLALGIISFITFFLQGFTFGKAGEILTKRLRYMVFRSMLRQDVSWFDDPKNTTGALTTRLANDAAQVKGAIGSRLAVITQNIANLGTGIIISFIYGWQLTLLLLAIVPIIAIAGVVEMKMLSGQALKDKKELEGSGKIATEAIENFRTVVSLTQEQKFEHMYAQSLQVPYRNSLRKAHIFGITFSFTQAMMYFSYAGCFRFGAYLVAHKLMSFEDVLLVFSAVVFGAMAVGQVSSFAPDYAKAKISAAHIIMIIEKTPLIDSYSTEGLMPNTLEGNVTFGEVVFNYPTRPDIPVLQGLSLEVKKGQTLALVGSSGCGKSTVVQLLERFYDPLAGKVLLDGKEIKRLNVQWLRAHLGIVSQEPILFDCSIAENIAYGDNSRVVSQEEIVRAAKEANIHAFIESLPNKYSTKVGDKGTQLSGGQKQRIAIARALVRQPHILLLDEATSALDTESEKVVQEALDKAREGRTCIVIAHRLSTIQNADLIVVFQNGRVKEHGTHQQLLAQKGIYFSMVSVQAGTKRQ
Procedure: Rhodamine 123 (Rh123) is a well-known substrate of P-gp and it is readily pumped out of the cells by this ABC transporter. The amount of retained Rh123 in the cells indicates the efflux function of the target transporter. Flow cytometric analysis was used for assessment of intracellular Rh123 as previously described.
Briefly, a suspension of the multidrug resistant uterine sarcoma MES-SA-DX5 cells at a density of 5 × 10^5 cells/mL in growth medium was prepared. Four-hundred microliters (400 µL) of the synthesized compounds with final concentration of 5, 10, and 25 µM were added to 500 µL of the cell suspension. Verapamil was also tested as a positive control. After an incubation of 20 min, 50 µL of Rh123 at a final concentration of 5 µM was added and incubated for further 30 min at 37 °C. The cells were then centrifuged and washed twice with ice-cold PBS, and then resuspended in PBS and kept on ice. Rh123 accumulated in cells was then quantified by a FACSCalibur flow cytometer (Becton Dickinson, San Jose, CA, USA) with excitation and emission wavelengths of 488 and 530 nm, respectively. Geometric means of fluorescence intensity values were determined using Flowing Software (http://flowingsoftware.btk.fi/).
Accumulation of Rhodamine123 (Rh123), caused by inhibition of P-gp-mediated efflux, was determined by flow cytometry in the multidrug resistant uterine sarcoma MES-SA-DX5 cell line. Verapamil was used as a positive control. MES-SA-DX5 is a resistant cell line, which overexpresses P-gp as a result of constant exposure to doxorubicin. Alterations in the amount of the fluorescent Rh123 retained inside the MES-SA-DX5 cells can be plausibly related to the inhibition of the activity of P-gp efflux pump in the cells (Figure 1). The ratio of the geometric mean value of cells treated with synthesized compounds to the geometric mean value of the control untreated cells are show in Figure 2.
Figure 2 MDR reversal assessed by flow cytometric detection of Rhodamine123 efflux in MES-SA-DX5 cells. Cells were suspended in RPMI 1640 and treated with verapamil (Ver, positive control) or synthesized derivatives. After incubation for 20 min, 5 μM Rh123 was added, the cells were incubated for another […] at 37 °C and then centrifuged and washed twice with ice-cold PBS and resuspended in PBS. The fluorescence caused by the presence of Rh123 in cells was measured using a flow cytometer with excitation and emission wavelengths of 488 nm and 530 nm, respectively. The values represent the mean ± S.E.M. of 3–5 experiments. * The difference between treated and controlled cells are statistically significant (p ˂ 0.05).

MES-SA-DX5 = experiment: MTT cell viability assay, MES-SA-DX5; assay type: cell-based, human; conditions: Homo sapiens, MES-SA/Dx5, 72 h, multidrug resistant, P-gp overexpressing, read-out: IC50 (µM) in Cultured Cells MES-SA-DX5
Description: as §1, §2

MES-SA-DX5 cells = experiment: Cell cycle analysis by propidium iodide (PI)-RNase flow cytometry; assay type: cell-based, human; parameters: Sub G1: unit not given here; conditions: 24 h
Procedure: The analysis of cells in different phases of cell cycle and sub-G1 was performed using propidium iodide (PI)-RNase assay by flow cytometry. MES-SA-DX5 cells were seeded in 12-well plates (1 × 10^6 cells/well) and treated with different concentrations of synthesized compounds for 24 h. The cells were then collected, washed with PBS, and fixed with 70% ethanol overnight at –20 °C. After at least 24 h, fixed cells were washed with PBS and subsequently stained with a DNA staining solution containing PI 20 μg/mL and RNase 200 μg/mL at room temperature for 30 min in the dark. Twenty thousand cells of each sample were analyzed using a BD FACSCalibur flow cytometer (BD Biosciences, USA) and the amount of the cells in sub-G1, G0/G1, S, and G2/M phases were estimated using CellQuest (Becton Dickinson, San Jose, CA, USA) software.
Therefore, it could be concluded that these compounds cause cytotoxicity in drug resistant MES-SA-DX5 cells by induction of apoptosis in these cells.
Figure 3 Effect of synthesized derivatives on cell cycle alterations in MES-SA-DX5 drug resistant cells. The cells in different phases of cell cycle were monitored using propidium iodide (PI)-RNase assay by flow cytometry. MES-SA-DX5 cells were seeded in 12-well plates (1 × 10^6 cells/well) and treated with different concentrations of synthesized compounds for 24 h. The cells were then collected, washed with PBS and fixed with 70% ethanol overnight at –20 °C. After at least 24 h, fixed cells were washed with PBS and subsequently stained with a DNA staining solution containing PI 20 μg/mL and RNase 200 μg/mL at room temperature for 30 min in the dark. Twenty thousand cells of each sample were analyzed using a FACS Calibur flow cytometer (BD Biosciences, USA). Representative histograms of cells treated with synthesized compounds are shown. An increase in sub-G1 phase cells could be observed after treatment with A1, A2, B1, and B2 compounds.

A-549 = experiment: MTT cell viability assay, A-549; assay type: cell-based, human; conditions: Homo sapiens, A549, 72 h, read-out: IC50 (µM) in Cultured Cells A-549
Description: as §1, §2

K562 = experiment: MTT cell viability assay, K562; assay type: cell-based, human; conditions: Homo sapiens, K562, 72 h, read-out: IC50 (µM) in Cultured Cells K562
Description: as §1, §2

Row | SMILES | IC50 (HEK-293; Homo sapiens, HEK293, 72 h) | IC50 (MES-SA) | IC50 (MCF-7) | P-gp inhibitory activity (Rh123 accumulation) (P-gp) | IC50 (MES-SA-DX5) | melting point | G0/G1 (MES-SA-DX5 cells; 10 µM) | G2/M (MES-SA-DX5 cells; 10 µM) | S (MES-SA-DX5 cells; 10 µM) | Sub G1 (MES-SA-DX5 cells; 10 µM) | G0/G1 (MES-SA-DX5 cells; 25 µM) | G2/M (MES-SA-DX5 cells; 25 µM) | S (MES-SA-DX5 cells; 25 µM) | Sub G1 (MES-SA-DX5 cells; 25 µM) | S (MES-SA-DX5 cells; 100 µM) | IC50 (A-549) | IC50 (K562) | IC50 (HEK-293; 72 h) | G0/G1 (MES-SA-DX5 cells; 100 µM) | G2/M (MES-SA-DX5 cells; 100 µM) | further results
1 | CC1=C(C(=O)Nc2csc(C)n2)C(c2ccc(Cl)cc2Cl)C2=C(CCCC2=O)N1 (stereo not shown) [Compound A1, 4-(2,4-Dichlorophenyl)-2-methyl-N-(2-methylthiazol-4-yl)-5-oxo-1,4,5,6,7,8-hexahydroquinoline-3-carboxamide] | 28.6 ± 4.3 µM | 64.1 ± 19.4 µM | 72.5 ± 11.9 µM | significantly blocked P-gp efflux; also recorded: highest P-gp inhibitory activities | 40.1 ± 4.7 µM | 195 °C | 52.32 ± 1.8 | 25.12 ± 1.7 | 21.85 ± 1.0 | 0.61 ± 0.2 | 53.30 ± 0.9 | 25.01 ± 0.7 | 20.96 ± 1.2 | 0.71 ± 0.2 | 21.12 ± 1.6 | 48.8 ± 1.3 µM | 15 ± 0.5 µM | – | – | – | –
2 | CC1=C(C(=O)Nc2csc(C)n2)C(c2ccc(Br)cc2)C2=C(CCCC2=O)N1 (stereo not shown) [Compound A2, 4-(4-Bromophenyl)-2-methyl-N-(2-methylthiazol-4-yl)-5-oxo-1,4,5,6,7,8-hexahydroquinoline-3-carboxamide] | > 50 µM | > 100 µM | 56.7 ± 3.6 µM | significantly blocked P-gp efflux; also recorded: highest P-gp inhibitory activities | 31.5 ± 1.5 µM | 273 °C | 56.45 ± 1.1 | 23.45 ± 0.2 | 18.90 ± 0.2 | 1.21 ± 0.7 | 59.47 ± 3.0 | 20.23 ± 0.7 | 18.53 ± 1.7 | 1.71 ± 1.1 | 19.27 ± 0.3 | 87.1 ± 6.7 µM | 31 ± 2.7 µM | 63.1 ± 7.4 µM | 50.57 ± 2.8 | 18.37 ± 2.6 | effect against parental non-resistant MES-SA cells (MES-SA): did not show any effect
3 | CC1=C(C(=O)Nc2csc(C)n2)C(c2ccc(Cl)cc2)C2=C(CCCC2=O)N1 (stereo not shown) [Compound A5, 4-(4-Chlorophenyl)-2-methyl-N-(2-methylthiazol-4-yl)-5-oxo-1,4,5,6,7,8-hexahydroquinoline-3-carboxamide] | > 50 µM | 69.5 ± 12.5 µM | 72.9 ± 12.3 µM | – | 40.3 ± 3 µM | 253 °C | 56.07 ± 0.3 | 24.20 ± 1.2 | 19.03 ± 0.9 | 0.65 ± 0.2 | 58.03 ± 0.7 | 22.33 ± 0.5 | 18.90 ± 0.9 | 0.70 ± 0.3 | 18.58 ± 0.6 | 87.4 ± 1.5 µM | 31.5 ± 3.3 µM | 71.1 ± 10.1 µM | 48.92 ± 1.4 | 29.32 ± 1.2 | –
4 | Cc1nc(NC(=O)c2c(C)nc3c(c2-c2ccc(Cl)cc2)C(=O)CCC3)cs1 [Compound B5, 4-(4-Chlorophenyl)-2-methyl-N-(2-methylthiazol-4-yl)-5-oxo-5,6,7,8-tetrahydroquinoline-3-carboxamide] | > 50 µM | > 100 µM | 89.5 ± 3.5 µM | – | 62.3 ± 5.5 µM | 251 °C | 53.87 ± 0.7 | 27.27 ± 2.6 | 18.13 ± 1.9 | 0.62 ± 0.1 | 55.43 ± 1.3 | 26.07 ± 2.7 | 17.73 ± 1.3 | 0.69 ± 0.1 | 13.62 ± 0.8 | 91 ± 4.6 µM | 10.4 ± 1.5 µM | 64.2 ± 1.1 µM | 57.58 ± 0.9 | 26.87 ± 0.9 | –
